Test results taken from US11766411B2, “Use of cannabinoids in the treatment of epilepsy” (GW Research Limited, priority 2014, dated 2023).

Columns and labels:
[1] = system: patients with FIRES; experiment: Expanded access program, febrile infection related epilepsy syndrome (FIRES) patients; assay type: in vivo, human; set-up: Change from Baseline: unit not given here; conditions: total seizures
Description: Three patients with FIRES, with an age range of from 4 to 15 years, were treated with CBD under an expanded access program as described previously in Example 1.
Safety laboratory studies, physical/neurological exams, 24 hour video/EEG and seizure types and frequencies were assessed at baseline and one month after starting CBD.
A highly purified extract of CBD as an oral solution in sesame oil was used at a concentration of 25 mg/mL.
Treatment was initiated at a dose of 10 mg/kg/day given in two divided doses, increasing by 5 mg/kg/day every 3 days.
Following seizure improvement an average of 2 AEDs were weaned.

[2] = system: adult patients with generalized epilepsy; conditions: eight adult patients with generalized epilepsy; cited from earlier work
[3] = system: adult patients; conditions: 200 mg/day of pure CBD, four adult patients; cited from earlier work
[4] = system: institutionalized adult patients; conditions: 200 mg/day of pure CBD, twelve institutionalized adult patients, open label; cited from earlier work
[5] = system: mice; conditions: after administration of pro-convulsant drugs or an electric current; cited from earlier work

## C=C(C)[C@@H]1CCC(C)=C[C@H]1c1c(O)cc(CCCCC)cc1O [CBD, Cannabidiol]
[1]; Patient 1, Wk 12
  Frequency (per month): 0.0 per month
  Responder (>=50% Reduction): Yes
  Responder (>=70% Reduction): Yes
  Responder (>=90% Reduction): Yes
  Seizure Free: Yes
[1]; Patient 1, Wk 16
  % Change from Baseline: −100.0%
  Change from Baseline: −4.0
  Frequency (per month): 0.0 per month
  Responder (>=50% Reduction): Yes
  Responder (>=70% Reduction): Yes
  Responder (>=90% Reduction): Yes
  Seizure Free: Yes
[1]; Patient 1, Wk 24
  % Change from Baseline: −92.0%
  Change from Baseline: −3.7
  Frequency (per month): 0.3 per month
  Responder (>=50% Reduction): Yes
  Responder (>=70% Reduction): Yes
  Responder (>=90% Reduction): Yes
  Seizure Free: No
[1]; Patient 2, Wk 2
  % Change from Baseline: −88.6%
  Change from Baseline: −6.2
  Frequency (per month): 0.8 per month
  Responder (>=50% Reduction): Yes
  Responder (>=70% Reduction): Yes
  Responder (>=90% Reduction): No
  Seizure Free: No
[1]; Patient 2, Wk 4
  % Change from Baseline: −57.1%
  Change from Baseline: −4.0
  Frequency (per month): 3.0 per month
  Responder (>=50% Reduction): Yes
  Responder (>=70% Reduction): No
  Responder (>=90% Reduction): No
  Seizure Free: No
[1]; Patient 2, Wk 8
  % Change from Baseline: 42.9%
  Change from Baseline: 3.0
  Frequency (per month): 10.0 per month
  Responder (>=50% Reduction): No
  Responder (>=70% Reduction): No
  Responder (>=90% Reduction): No
  Seizure Free: No
[1]; Patient 2, Wk 12
  % Change from Baseline: 14.3%
  Change from Baseline: 1.0
  Frequency (per month): 8.0 per month
  Responder (>=50% Reduction): No
  Responder (>=70% Reduction): No
  Responder (>=90% Reduction): No
  Seizure Free: No
[1]; Patient 2, Wk 16
  % Change from Baseline: −42.9%
  Change from Baseline: −3.0
  Frequency (per month): 4.0 per month
  Responder (>=50% Reduction): No
  Responder (>=70% Reduction): No
  Responder (>=90% Reduction): No
  Seizure Free: No
[1]; Patient 3, Wk 4
  % Change from Baseline: −99.2%
  Change from Baseline: −5552.8
  Frequency (per month): 47.2 per month
  Responder (>=50% Reduction): Yes
  Responder (>=70% Reduction): Yes
  Responder (>=90% Reduction): Yes
  Seizure Free: No
[1]; Patient 3, Wk 8
  % Change from Baseline: −99.8%
  Change from Baseline: −5590.8
  Frequency (per month): 9.2 per month
  Responder (>=50% Reduction): Yes
  Responder (>=70% Reduction): Yes
  Responder (>=90% Reduction): Yes
  Seizure Free: No
[1]; Patient 3, Wk 12
  % Change from Baseline: −97.5%
  Change from Baseline: −5458.4
  Frequency (per month): 141.6 per month
  Responder (>=50% Reduction): Yes
  Responder (>=70% Reduction): Yes
  Responder (>=90% Reduction): Yes
  Seizure Free: No
[1]; Patient 3, Wk 24
  % Change from Baseline: −90.3%
  Change from Baseline: −5058.0
  Frequency (per month): 542.0 per month
  Responder (>=50% Reduction): Yes
  Responder (>=70% Reduction): Yes
  Responder (>=90% Reduction): Yes
  Seizure Free: No
[2]
  patients with a marked reduction of seizures: 4
[3]
  patients who became seizure free: two
[4]
  controlling seizures: ineffective
[5]
  prevention of seizures: able to prevent seizures
